Among the data in US12371434B2, “MLL1 inhibitors and anti-cancer agents” (NOVARTIS AG, priority 2020, dated 2025) are IC50 values, retold here.

The target in test [1] is wild type MLL1 four-member complex (MLL1-4C) (Homo sapiens, UniProt Q03164). Put plainly: MLL1 LC-MS assay. To be noted: 30 nM MLL1-4C, 2.5 μM SAM, 10 μM H3K4me0; SAH production by LC-MS/MS; read-out: MLL1 LCMS. The class given is biochemical. The method, boiled down:
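Compound (8 or 12 points, 3-fold) preincubated 20 min with MLL1-4C and SAM; reaction started with H3K4me0 biotinylated peptide (final 30 nM enzyme, 2.5 μM SAM, 10 μM substrate, pH 8.0), 120 min at rt. TFA quench with d4-SAH; SAH quantified by LC-MS/MS, normalised to controls and fitted for IC50.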

In test [2] the target is wild type MLL1 five-member complex (MLL1-5C) (Homo sapiens, UniProt Q03164). Put plainly: MLL1 Flashplate assay. In kind it is biochemical. The conditions noted are these: 2.5 nM MLL1-5C, 0.5 μM 3H-SAM, 1 μM H3K4me0; read-out: MLL1 flash plate. The procedure: MLL1 Flashplate Assay To assess the compound potency in MLL1 Flashplate assay, compounds were serially diluted 3-fold in DMSO to obtain a total of twelve concentrations. Then the test compounds at each concentration (250 nL of each) were transferred by Mosquito into Corning #3675 384-well plate. Solutions (15 μL) of 4.2 nM wild type MLL1 five-member complex (MLL1-5C) in the assay buffer (20 mM Tris-HCl, pH8.0, 0.01% Tween 20, 1 mM DTT, 0.01% BSA) were added to the wells. A 10 μL solution of 2.5 μM of the peptide substrate H3K4me0 (histone H3[1-21]-Biotin) and 1.25 μM ^3H-SAM in the reaction buffer was then added to initiate each reaction. The final components in the reaction solution include 2.5 nM MLL1-5C, 0.5 μM ^3H-SAM, and 1 μM H3K4me0 with varying concentration of the compounds. A positive control consisted of 2.5 nM MLL1-5C, 0.5 μM ^3H-SAM, and 1 μM substrate in the absence of the test compound, and a negative control consisted of 0.5 μM ^3H-SAM, and 1 μM substrate only. Each reaction was incubated at rt for 90 min, then stopped by addition of 5 μL per of quench solution (0.5 mM SAM in assay buffer). 25 μL of each reaction solution was transferred to FlashPlate streptavidin 384-well microplate (PerkinElmer). After at least 1 h incubation at rt, the wells were washed three times with 0.1% Tween-20 in dH2O using the BioTek plate washer. The plates were then read in MicroBeta (PerkinElmer). The radioactive readouts were then normalized based on the values coming from the positive and negative controls to give percent enzyme activities. The data were then fit to a dose response equation using the program Helios to get the IC50 values of the test compounds.

For the next test, the system named is H3K4me3 in MV4-11 cells. Put plainly: MV4-11 H3K4Me3 cellular ELISA assay. In kind it is cell-based. The conditions noted are these: Homo sapiens, 48 hours, H3K4me3 signal normalized to total H3.
The next test deals with MV4-11 cells. Put plainly: MV4-11 6-day cell growth CTG (CellTiter-Glo) assay. The class given is cell-based. The conditions noted are these: Homo sapiens, 144 h, 6 days. The procedure: MV4-11 6-Day Cell Growth CTG (CellTiter-Glo) Assay
Acute myeloid leukemia cell MV4-11 (ATCC® CRL-9591™) was cultured with RPMI 1640 medium (Thermo Fisher Scientific, cat #11875) supplemented with 10% FBS (Thermo Fisher Scientific, cat #10099141) in humidified incubator at 37° C., 5% CO2. To assess the effect of MLL1 inhibition on cell growth, the compound of the present invention was dissolved in DMSO and serially diluted at 1:3 for 12 points starting from 10 mM then 200 nL for the replicate of each dose per well was dispensed to Viewplate-384 Black (Perkin Elmer). Exponentially growing MV4-11 cells were seeded at the density of 300 cells per well in 40 μL to the plate, so the final compound working concentration starts from 50 μM. After 6 days, 40 μL CellTiter-Glo (Promega, cat #G7573) was added into the cell culture well and luminescence was read with Envision (Perkin Elmer) to determine the viable cells. The percentage inhibition was calculated against the samples treated with DMSO only and the data were used for dose response curve fitting in GraphPad Prism to get the IC50 of representative compound of present invention, which reflects the inhibition of MLL1 activity.

Structures are written as SMILES.

In the case of `Nc1ncnc2c1ncn2Cc1c(OCCC[C@@H](N)C(=O)NC2CC2)ccc(Cl)c1Cl` [Example 42, (R)-2-amino-5-(2-((6-amino-9H-purin-9-yl)methyl)-3,4-dichlorophenoxy)-N-cyclopropylpentanamide], the IC50 in test [1] is less than 0.05 µM; in test [2] it was less than 0.06 µM; in the test with H3K4me3 in MV4-11 cells, less than 1.9 µM; with MV4-11 cells it was less than 2 µM.

For `CS(=O)(=O)NC(=O)[C@H](N)CCCOc1ccc(Cl)c(Cl)c1Cn1cnc2c(N)ncnc21` [Example 43, (R)-2-amino-5-(2-((6-amino-9H-purin-9-yl)methyl)-3,4-dichlorophenoxy)-N-(methylsulfonyl)pentanamide], the IC50 was less than 0.05 µM in test [1], less than 0.06 µM in test [2], less than 1.9 µM with H3K4me3 in MV4-11 cells and less than 2 µM with MV4-11 cells.

Consider `Nc1ncnc2c1ncn2Cc1c(OCCC[C@@H](N)c2nc[nH]n2)ccc(Cl)c1Cl` [Example 48, (R)-9-(6-(4-amino-4-(1H-1,2,4-triazol-3-yl)butoxy)-2,3-dichlorobenzyl)-9H-purin-6-amine], for which the IC50 in test [1] was less than 0.05 µM; in test [2] it was less than 0.06 µM; in the test on H3K4me3 in MV4-11 cells, less than 1.9 µM; with MV4-11 cells, less than 2 µM.

Consider `Cc1nnc([C@H](N)CCCOc2ccc(Cl)c(Cl)c2Cn2cnc3c(N)ncnc32)s1` [Example 50, (R)-9-(6-(4-amino-4-(5-methyl-1,3,4-thiadiazol-2-yl)butoxy)-2,3-dichlorobenzyl)-9H-purin-6-amine], for which the IC50 in test [1] is less than 0.05 µM; in test [2] it was less than 0.06 µM; in the test on H3K4me3 in MV4-11 cells, more than 3 µM; in the test with MV4-11 cells it was more than 3 µM.

On to `CN(C)C[C@H](N)CCCOc1ccc(Cl)c(Cl)c1Cn1cnc2c(N)ncnc21` [Example 53, (R)-5-(2-((6-amino-9H-purin-9-yl)methyl)-3,4-dichlorophenoxy)-N^1,N^1-dimethylpentane-1,2-diamine], for which the IC50 in test [1] was more than 0.1 µM; in test [2], more than 0.1 µM; with H3K4me3 in MV4-11 cells, more than 3 µM; in the test with MV4-11 cells, more than 3 µM.
